# Test results reported in patent US7652153B2, “Caspase inhibitors and uses thereof” (Vertex Pharmaceuticals Incorporated, priority 2004, dated 2010).
# Legend:
# caspase-8 = caspase-8 (Homo sapiens, UniProt Q14790); experiment: Caspase-8 enzyme inhibition (Ki, method of Margolin et al.); format: biochemical; conditions: Ac-DEVD-pNA substrate 80 μM, 37° C., pH 7.5; read-out: Ki C8
# Description: (§1) Compounds of this invention may be tested using the methods described below.
# (§2) In Vitro Assays Enzyme Inhibition
# (§3) Ki values for test compounds with caspase-1 and caspase-8 were obtained by the method of Margolin et al. (J. Biol. Chem., 272 pp. 7223-7228 (1997)). Other caspases may be assayed similarly (see, e.g., WO 99/47545). Assays were performed in 10 mM Tris (Sigma Corp, St Louis Mo.) pH 7.5, 1 mM Dithiothreitol (DTT, Research Organic INC, Cleveland, Ohio) and 0.1% CHAPS (Pierce, Rockford Ill.) at 37° C. For caspase-3, a solution of 8% glycerol was added to the assay buffer to improve enzyme stability. A 65 μL aliquot of the assay buffer and 5 μL aliquot of the appropriate dilutions of inhibitor in DMSO where pipetted into a 96 well plate, treated with 10 μL of caspase, then diluted in assay buffer (0.5-40 nM active protein by active site titration). A control containing DMSO but no compound was included for each determination. The plates were then incubated for 15 minutes at 37° C., before addition of the appropriate substrate (20 μL, final concentration 1-4×KM, final assay volume 100 μL) to initiate the reaction. Reaction rates were measured at 37° C. either by following the time dependant increase in absorbance at 405 nm (for the pNA substrates) or in fluorescence (Ex 390, Em 460) (for the AMC substrates). The rates obtained were plotted against inhibitor concentration and the data fit to the Morrison tight-binding equation for competitive inhibitors (Morrison, J. F., Biochem. Biophys. Acta, 185 pp. 269-286 (1969)). The substrates used for the individual assays were as follows:
# Caspase-8 Ac-DEVD-pNA (Bachem, King of Prussia, Pa.) (final concentration in assay 80 μM).
# caspase-1 = biological target: T1, caspase-1 (Homo sapiens, UniProt P29466); experiment: Caspase-1 enzyme inhibition (Ki, method of Margolin et al.); format: biochemical; conditions: Suc-YVAD-pNA substrate 80 μM, 37° C., pH 7.5; read-out: Ki C1
# T1 sequence (P29466 120-297 limits assumed): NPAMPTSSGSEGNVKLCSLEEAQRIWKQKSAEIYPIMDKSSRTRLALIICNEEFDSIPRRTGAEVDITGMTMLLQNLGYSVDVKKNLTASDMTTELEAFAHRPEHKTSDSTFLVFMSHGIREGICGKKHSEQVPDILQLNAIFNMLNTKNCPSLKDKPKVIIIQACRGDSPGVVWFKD
# T1 sequence (P29466 317-404 limits assumed): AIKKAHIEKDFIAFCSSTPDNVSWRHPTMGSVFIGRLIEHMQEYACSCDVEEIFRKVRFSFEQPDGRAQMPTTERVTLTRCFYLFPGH
# Description: as §1, §2, §3
# Caspase-1 Suc-YVAD-pNA (Bachem, King of Prussia, Pa.) (final concentration in the assay 80 μM);
# Sequence of caspase-8 (Q14790 217-374 limits assumed, species assumed): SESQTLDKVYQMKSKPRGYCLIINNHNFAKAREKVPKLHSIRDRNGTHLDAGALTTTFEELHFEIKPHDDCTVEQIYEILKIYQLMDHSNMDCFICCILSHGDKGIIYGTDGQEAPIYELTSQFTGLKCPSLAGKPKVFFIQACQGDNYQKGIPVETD
# Sequence of caspase-8 (Q14790 385-479 limits assumed, species assumed): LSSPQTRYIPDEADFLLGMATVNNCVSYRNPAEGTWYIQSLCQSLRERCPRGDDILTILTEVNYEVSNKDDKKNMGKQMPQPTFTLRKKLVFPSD
Compound,Ki (caspase-8) [nM],Ki (caspase-1) [nM]
"COc1cccc(C(=O)N[C@H](C(=O)N2[C@@H]3CC[C@@H](C3)[C@H]2C(=O)NC(C=O)CC(=O)O)C(C)(C)C)c1C (stereo in doubt) [II-55, (3S)-({2-[(2S)-(3-Methoxy-2-methyl-benzoylamino)-3,3-dimethyl-butyryl]-2-(1S,4R)-aza-bicyclo[2.2.1]heptane-(3S)-carbonyl}-amino)-4-oxo-butyric acid]",< 10,< 10
"CC(C)(C)[C@H](NC(=O)c1ccccc1Cl)C(=O)N1[C@@H]2CC[C@@H](C2)[C@H]1C(=O)NC(C=O)CC(=O)O (stereo in doubt) [II-56, (3S)-({2-[(2S)-(2-Chloro-benzoylamino)-3,3-dimethyl-butyryl]-2-(1S,4R)-aza-bicyclo[2.2.1]heptane-(3S)-carbonyl}-amino)-4-oxo-butyric acid]",< 10,< 10
"CC(=O)Nc1ccc(C(=O)N[C@H](C(=O)N2C3CC[C@@H](C3)[C@H]2C(=O)N[C@H](C=O)CC(=O)O)C(C)(C)C)c(Cl)c1 (stereo in doubt) [II-57, (3S)-({2-[(2S)-(4-Acetylamino-2-chloro-benzoylamino)-3,3-dimethyl-butyryl]-2-(1S,4R)-aza-bicyclo[2.2.1]heptane-(3S)-carbonyl}-amino)-4-oxo-butyric acid]",< 10,< 10
"CCC(=O)Nc1ccc(C(=O)N[C@H](C(=O)N2C3CC[C@@H](C3)[C@H]2C(=O)NC(C=O)CC(=O)O)C(C)(C)C)c(Cl)c1 (stereo in doubt) [II-58, (3S)-({2-[(2S)-(2-Chloro-4-propionylamino-benzoylamino)-3,3-dimethyl-butyryl]-2-(1S,4R)-aza-bicyclo[2.2.1]heptane-(3S)-carbonyl}-amino)-4-oxo-butyric acid]",< 10,< 10
"CC(C)C(=O)Nc1cccc(C(=O)N[C@H](C(=O)N2C3CC[C@@H](C3)[C@H]2C(=O)N[C@H](C=O)CC(=O)O)C(C)(C)C)c1Cl (stereo in doubt) [II-59, (3S)-({2-[(2S)-(2-Chloro-3-isobutyrylamino-benzoylamino)-3,3-dimethyl-butyryl]-2-(1S,4R)-aza-bicyclo[2.2.1]heptane-(3S)-carbonyl}-amino)-4-oxo-butyric acid]",< 10,< 10
"COc1cccc(C(=O)N[C@H](C(=O)N2C3CC[C@@H](C3)[C@H]2C(=O)N[C@H](C=O)CC(=O)O)C(C)(C)C)c1F (stereo in doubt) [II-60, (3S)-({2-[(2S)-(2-Fluoro-3-methoxy-benzoylamino)-3,3-dimethyl-butyryl]-2-(1S,4R)-aza-bicyclo[2.2.1]heptane-(3S)-carbonyl}-amino)-4-oxo-butyric acid]",< 10,< 10
"COc1cccc(C(=O)N[C@H](C(=O)N2C3CC[C@@H](C3)[C@H]2C(=O)N[C@H](C=O)CC(=O)O)C(C)C)c1F (stereo in doubt) [II-61, (3S)-({2-[(2S)-(2-Fluoro-3-methoxy-benzoylamino)-3-methyl-butyryl]-2-(1S,4R)-aza-bicyclo[2.2.1]heptane-(3S)-carbonyl}-amino)-4-oxo-butyric acid]",< 10,< 10
"CC(=O)Nc1ccc(C(=O)N[C@H](C(=O)N2[C@@H]3CC[C@@H](C3)[C@H]2C(=O)N[C@H](C=O)CC(=O)O)C(C)(C)C)cc1Cl (stereo in doubt) [II-62, (3S)-({2-[(2S)-(4-Acetylamino-3-chloro-benzoylamino)-3,3-dimethyl-butyryl]-2-(1S,4R)-aza-bicyclo[2.2.1]heptane-(3S)-carbonyl}-amino)-4-oxo-butyric acid]",10 to 20,< 10
"CCC(=O)Nc1ccc(C(=O)N[C@H](C(=O)N2[C@@H]3CC[C@@H](C3)[C@H]2C(=O)N[C@H](C=O)CC(=O)O)C(C)(C)C)cc1Cl (stereo in doubt) [II-63, (3S)-({2-[(2S)-(3-Chloro-4-propionylamino-benzoylamino)-3,3-dimethyl-butyryl]-2-(1S,4R)-aza-bicyclo[2.2.1]heptane-(3S)-carbonyl}-amino)-4-oxo-butyric acid]",10 to 20,< 10
"CC(C)(C)[C@H](NC(=O)c1nccc2ccccc12)C(=O)N1[C@@H]2CC[C@@H](C2)[C@H]1C(=O)N[C@H](C=O)CC(=O)O (stereo in doubt) [II-64, (3S)-({2-[(2S)-(Isoquinolin-1-ylcarbonylamino)-3,3-dimethyl-butyryl]-2-(1S,4R)-aza-bicyclo[2.2.1]heptane-(3S)-carbonyl}-amino)-4-oxo-butyric acid]",10 to 20,10 to 20
"CC(C)(C)[C@H](NC(=O)c1ccc(N)c(Cl)c1)C(=O)N1[C@@H]2CC[C@@H](C2)[C@H]1C(=O)N[C@H](C=O)CC(=O)O (stereo in doubt) [II-65, (3S)-({2-[(2S)-(4-Amino-3-chloro-benzoylamino)-3,3-dimethyl-butyryl]-2-(1S,4R)-aza-bicyclo[2.2.1]heptane-(3S)-carbonyl}-amino)-4-oxo-butyric acid]",< 10,< 10
"CC(C)[C@H](NC(=O)c1ccc(N)c(Cl)c1)C(=O)N1[C@@H]2CC[C@@H](C2)[C@H]1C(=O)N[C@H](C=O)CC(=O)O (stereo in doubt) [II-66, (3S)-({2-[(2S)-(4-Amino-3-chloro-benzoylamino)-3-methyl-butyryl]-2-(1S,4R)-aza-bicyclo[2.2.1]heptane-(3S)-carbonyl}-amino)-4-oxo-butyric acid]",< 10,10 to 20
"COc1cccc(C(=O)N[C@H](C(=O)N2CCC[C@H]2C(=O)N[C@H](C=O)CC(=O)O)C(C)C)c1C [II-1, (S,S,S)-(3S)-({1-[(2S)-(3-Methoxy-2-methyl-benzoylamino)-3-methyl-butyryl]-pyrrolidine-(2S)-carbonyl}-amino)-4-oxo-butyric acid]",< 10,< 10
"CC(C)[C@H](NC(=O)c1ccccc1Cl)C(=O)N1CCC[C@H]1C(=O)N[C@H](C=O)CC(=O)O [II-2, (S,S,S)-(3S)-({1-[(2S)-(2-Chloro-benzoylamino)-3-methyl-butyryl]-pyrrolidine-(2S)-carbonyl}-amino)-4-oxo-butyric acid]",< 10,< 10
"Cc1ccccc1C(=O)N[C@H](C(=O)N1CCC[C@H]1C(=O)N[C@H](C=O)CC(=O)O)C(C)C [II-3, (S,S,S)-(3S)-({1-[3-Methyl-(2S)-(2-methyl-benzoylamino)-butyryl]-pyrrolidine-(2S)-carbonyl}-amino)-4-oxo-butyric acid]",< 10,< 10
"COc1ccccc1C(=O)N[C@H](C(=O)N1CCC[C@H]1C(=O)N[C@H](C=O)CC(=O)O)C(C)C [II-4, (S,S,S)-(3S)-({1-[(2S)-(2-methoxy-benzoylamino)-3-methyl-butyryl]-pyrrolidine-(2S)-carbonyl}-amino)-4-oxo-butyric acid]",10 to 20,< 10
"CC(C)[C@H](NC(=O)c1ccccc1OC(F)(F)F)C(=O)N1CCC[C@H]1C(=O)N[C@H](C=O)CC(=O)O [II-5, (S,S,S)-(3S)-({1-[3-Methyl-(2S)-(2-trifluoromethoxy-benzoylamino)-butyryl]-pyrrolidine-(2S)-carbonyl}-amino)-4-oxo-butyric acid]",10 to 20,< 10
"Cc1c(O)cccc1C(=O)N[C@H](C(=O)N1CCC[C@H]1C(=O)N[C@H](C=O)CC(=O)O)C(C)C [II-6, (S,S,S)-(3S)-({1-[(2S)-(3-Hydroxy-2-methyl-benzoylamino)-3-methyl-butyryl]-pyrrolidine-(2S)-carbonyl}-amino)-4-oxo-butyric acid]",< 10,< 10
"Cc1c(N)cccc1C(=O)N[C@H](C(=O)N1CCC[C@H]1C(=O)N[C@H](C=O)CC(=O)O)C(C)C [II-7, (S,S,S)-(3S)-({1-[(2S)-(3-Amino-2-methyl-benzoylamino)-3-methyl-butyryl]-pyrrolidine-(2S)-carbonyl}-amino)-4-oxo-butyric acid]",10 to 20,< 10
"CC(C)[C@H](NC(=O)c1cccc(Cl)c1Cl)C(=O)N1CCC[C@H]1C(=O)N[C@H](C=O)CC(=O)O [II-8, (S,S,S)-(3S)-({1-[(2S)-(2,3-Dichloro-benzoylamino)-3-methyl-butyryl]-pyrrolidine-(2S)-carbonyl}-amino)-4-oxo-butyric acid]",10 to 20,< 10
